Measurements: ChEMBL document CHEMBL1795251, “Structure-based design of thienobenzoxepin inhibitors of PI3-kinase” (Bioorg Med Chem Lett, 2011)
Activity calls are given as the source filed them. The rule behind the calls is not given here.

Columns and labels:
[1] = target: Phosphatidylinositol 4,5-bisphosphate 3-kinase catalytic subunit alpha isoform (Homo sapiens, UniProt P42336)
[2] = in vivo; details: rat, plasma, iv, 1 mg/kg
[3] = in vivo; details: mouse, plasma, iv, 1 mg/kg
[4] = system: Hepatocyte; assay: Metabolic stability in cryopreserved human hepatocytes assessed as N-(2-chlorophenyl)-N-methyl-8-(1H-pyrazol-4-yl)-4,5-dihydrobenzo[b]thieno[2,3-d]oxepine-2-carboxamide formation; format: ADME, cell-based
[5] = target: Serine/threonine-protein kinase mTOR (Homo sapiens, UniProt P42345); assay: Inhibition of mTOR
[6] = system: PC-3; assay: Antiproliferative activity against human PC3 cells; format: functional, cell-based
[7] = system: MCF7; assay: Antiproliferative activity against human MCF7 cells; format: functional, cell-based
[8] = Plasma protein binding in human; format: ADME, cell-free; details: read-out: PPB (converted)
[9] = Plasma protein binding in rat; format: ADME, cell-free; details: read-out: PPB (converted)
[10] = Plasma protein binding in mouse; format: ADME, cell-free; details: read-out: PPB (converted)
[11] = Plasma protein binding in dog; format: ADME, cell-free, Canis lupus familiaris; details: read-out: PPB (converted)
[12] = Plasma protein binding in cynomolgus monkey; format: ADME, cell-free, Macaca fascicularis; details: read-out: PPB
[13] = Plasma clearance in rat at 100 mg/kg; format: ADME, organism-based; set-up: dose 100 mg/kg
[14] = Oral bioavailability in rat at 100 mg/kg; format: ADME, organism-based; details: in vivo
[15] = AUC in rat at 100 mg/kg; format: ADME, organism-based; set-up: dose 100 mg/kg; details: plasma
[16] = Plasma clearance in mouse at 100 mg/kg; format: ADME, organism-based; set-up: dose 100 mg/kg
[17] = Oral bioavailability in mouse at 100 mg/kg; format: ADME, organism-based; details: in vivo
[18] = AUC in mouse at 100 mg/kg; format: ADME, organism-based; set-up: dose 100 mg/kg; details: plasma
[19] = Plasma clearance in cynomolgus monkey; format: ADME, organism-based, Macaca fascicularis
[20] = system: Mus musculus; assay: Inhibition of PI3K pathway in nude mouse xenografted with HER2 expressing MCF7 assessed as reduction in phosphorylated AKT levels at 50 mg/kg, po administered as single dose after 6 hrs relative to control; format: functional, organism-based; set-up: dose 50 mg/kg
[21] = system: Mus musculus; assay: Inhibition of PI3K pathway in nude mouse xenografted with HER2 expressing MCF7 assessed as reduction in phosphorylated PRAS40 levels at 50 mg/kg, po administered as single dose after 6 hrs relative to control; format: functional, organism-based; set-up: dose 50 mg/kg
[22] = system: Mus musculus; assay: Inhibition of PI3K pathway in nude mouse xenografted with HER2 expressing MCF7 assessed as reduction in phosphorylated S6RP levels at 50 mg/kg, po administered as single dose after 6 hrs relative to control; format: functional, organism-based; set-up: dose 50 mg/kg
[23] = Plasma clearance in dog at 2 mg/kg; format: ADME, organism-based, Canis lupus familiaris; set-up: dose 2 mg/kg
[24] = Oral bioavailability in dog at 2 mg/kg; format: ADME, organism-based, Canis lupus familiaris; details: in vivo
[25] = AUC in dog at 2 mg/kg; format: ADME, organism-based, Canis lupus familiaris; set-up: dose 2 mg/kg; details: plasma
[26] = target: DNA-dependent protein kinase catalytic subunit (Homo sapiens, UniProt P78527); assay: Inhibition of DNA-PK
Chain of DNA-dependent protein kinase catalytic subunit (P78527 whole entry): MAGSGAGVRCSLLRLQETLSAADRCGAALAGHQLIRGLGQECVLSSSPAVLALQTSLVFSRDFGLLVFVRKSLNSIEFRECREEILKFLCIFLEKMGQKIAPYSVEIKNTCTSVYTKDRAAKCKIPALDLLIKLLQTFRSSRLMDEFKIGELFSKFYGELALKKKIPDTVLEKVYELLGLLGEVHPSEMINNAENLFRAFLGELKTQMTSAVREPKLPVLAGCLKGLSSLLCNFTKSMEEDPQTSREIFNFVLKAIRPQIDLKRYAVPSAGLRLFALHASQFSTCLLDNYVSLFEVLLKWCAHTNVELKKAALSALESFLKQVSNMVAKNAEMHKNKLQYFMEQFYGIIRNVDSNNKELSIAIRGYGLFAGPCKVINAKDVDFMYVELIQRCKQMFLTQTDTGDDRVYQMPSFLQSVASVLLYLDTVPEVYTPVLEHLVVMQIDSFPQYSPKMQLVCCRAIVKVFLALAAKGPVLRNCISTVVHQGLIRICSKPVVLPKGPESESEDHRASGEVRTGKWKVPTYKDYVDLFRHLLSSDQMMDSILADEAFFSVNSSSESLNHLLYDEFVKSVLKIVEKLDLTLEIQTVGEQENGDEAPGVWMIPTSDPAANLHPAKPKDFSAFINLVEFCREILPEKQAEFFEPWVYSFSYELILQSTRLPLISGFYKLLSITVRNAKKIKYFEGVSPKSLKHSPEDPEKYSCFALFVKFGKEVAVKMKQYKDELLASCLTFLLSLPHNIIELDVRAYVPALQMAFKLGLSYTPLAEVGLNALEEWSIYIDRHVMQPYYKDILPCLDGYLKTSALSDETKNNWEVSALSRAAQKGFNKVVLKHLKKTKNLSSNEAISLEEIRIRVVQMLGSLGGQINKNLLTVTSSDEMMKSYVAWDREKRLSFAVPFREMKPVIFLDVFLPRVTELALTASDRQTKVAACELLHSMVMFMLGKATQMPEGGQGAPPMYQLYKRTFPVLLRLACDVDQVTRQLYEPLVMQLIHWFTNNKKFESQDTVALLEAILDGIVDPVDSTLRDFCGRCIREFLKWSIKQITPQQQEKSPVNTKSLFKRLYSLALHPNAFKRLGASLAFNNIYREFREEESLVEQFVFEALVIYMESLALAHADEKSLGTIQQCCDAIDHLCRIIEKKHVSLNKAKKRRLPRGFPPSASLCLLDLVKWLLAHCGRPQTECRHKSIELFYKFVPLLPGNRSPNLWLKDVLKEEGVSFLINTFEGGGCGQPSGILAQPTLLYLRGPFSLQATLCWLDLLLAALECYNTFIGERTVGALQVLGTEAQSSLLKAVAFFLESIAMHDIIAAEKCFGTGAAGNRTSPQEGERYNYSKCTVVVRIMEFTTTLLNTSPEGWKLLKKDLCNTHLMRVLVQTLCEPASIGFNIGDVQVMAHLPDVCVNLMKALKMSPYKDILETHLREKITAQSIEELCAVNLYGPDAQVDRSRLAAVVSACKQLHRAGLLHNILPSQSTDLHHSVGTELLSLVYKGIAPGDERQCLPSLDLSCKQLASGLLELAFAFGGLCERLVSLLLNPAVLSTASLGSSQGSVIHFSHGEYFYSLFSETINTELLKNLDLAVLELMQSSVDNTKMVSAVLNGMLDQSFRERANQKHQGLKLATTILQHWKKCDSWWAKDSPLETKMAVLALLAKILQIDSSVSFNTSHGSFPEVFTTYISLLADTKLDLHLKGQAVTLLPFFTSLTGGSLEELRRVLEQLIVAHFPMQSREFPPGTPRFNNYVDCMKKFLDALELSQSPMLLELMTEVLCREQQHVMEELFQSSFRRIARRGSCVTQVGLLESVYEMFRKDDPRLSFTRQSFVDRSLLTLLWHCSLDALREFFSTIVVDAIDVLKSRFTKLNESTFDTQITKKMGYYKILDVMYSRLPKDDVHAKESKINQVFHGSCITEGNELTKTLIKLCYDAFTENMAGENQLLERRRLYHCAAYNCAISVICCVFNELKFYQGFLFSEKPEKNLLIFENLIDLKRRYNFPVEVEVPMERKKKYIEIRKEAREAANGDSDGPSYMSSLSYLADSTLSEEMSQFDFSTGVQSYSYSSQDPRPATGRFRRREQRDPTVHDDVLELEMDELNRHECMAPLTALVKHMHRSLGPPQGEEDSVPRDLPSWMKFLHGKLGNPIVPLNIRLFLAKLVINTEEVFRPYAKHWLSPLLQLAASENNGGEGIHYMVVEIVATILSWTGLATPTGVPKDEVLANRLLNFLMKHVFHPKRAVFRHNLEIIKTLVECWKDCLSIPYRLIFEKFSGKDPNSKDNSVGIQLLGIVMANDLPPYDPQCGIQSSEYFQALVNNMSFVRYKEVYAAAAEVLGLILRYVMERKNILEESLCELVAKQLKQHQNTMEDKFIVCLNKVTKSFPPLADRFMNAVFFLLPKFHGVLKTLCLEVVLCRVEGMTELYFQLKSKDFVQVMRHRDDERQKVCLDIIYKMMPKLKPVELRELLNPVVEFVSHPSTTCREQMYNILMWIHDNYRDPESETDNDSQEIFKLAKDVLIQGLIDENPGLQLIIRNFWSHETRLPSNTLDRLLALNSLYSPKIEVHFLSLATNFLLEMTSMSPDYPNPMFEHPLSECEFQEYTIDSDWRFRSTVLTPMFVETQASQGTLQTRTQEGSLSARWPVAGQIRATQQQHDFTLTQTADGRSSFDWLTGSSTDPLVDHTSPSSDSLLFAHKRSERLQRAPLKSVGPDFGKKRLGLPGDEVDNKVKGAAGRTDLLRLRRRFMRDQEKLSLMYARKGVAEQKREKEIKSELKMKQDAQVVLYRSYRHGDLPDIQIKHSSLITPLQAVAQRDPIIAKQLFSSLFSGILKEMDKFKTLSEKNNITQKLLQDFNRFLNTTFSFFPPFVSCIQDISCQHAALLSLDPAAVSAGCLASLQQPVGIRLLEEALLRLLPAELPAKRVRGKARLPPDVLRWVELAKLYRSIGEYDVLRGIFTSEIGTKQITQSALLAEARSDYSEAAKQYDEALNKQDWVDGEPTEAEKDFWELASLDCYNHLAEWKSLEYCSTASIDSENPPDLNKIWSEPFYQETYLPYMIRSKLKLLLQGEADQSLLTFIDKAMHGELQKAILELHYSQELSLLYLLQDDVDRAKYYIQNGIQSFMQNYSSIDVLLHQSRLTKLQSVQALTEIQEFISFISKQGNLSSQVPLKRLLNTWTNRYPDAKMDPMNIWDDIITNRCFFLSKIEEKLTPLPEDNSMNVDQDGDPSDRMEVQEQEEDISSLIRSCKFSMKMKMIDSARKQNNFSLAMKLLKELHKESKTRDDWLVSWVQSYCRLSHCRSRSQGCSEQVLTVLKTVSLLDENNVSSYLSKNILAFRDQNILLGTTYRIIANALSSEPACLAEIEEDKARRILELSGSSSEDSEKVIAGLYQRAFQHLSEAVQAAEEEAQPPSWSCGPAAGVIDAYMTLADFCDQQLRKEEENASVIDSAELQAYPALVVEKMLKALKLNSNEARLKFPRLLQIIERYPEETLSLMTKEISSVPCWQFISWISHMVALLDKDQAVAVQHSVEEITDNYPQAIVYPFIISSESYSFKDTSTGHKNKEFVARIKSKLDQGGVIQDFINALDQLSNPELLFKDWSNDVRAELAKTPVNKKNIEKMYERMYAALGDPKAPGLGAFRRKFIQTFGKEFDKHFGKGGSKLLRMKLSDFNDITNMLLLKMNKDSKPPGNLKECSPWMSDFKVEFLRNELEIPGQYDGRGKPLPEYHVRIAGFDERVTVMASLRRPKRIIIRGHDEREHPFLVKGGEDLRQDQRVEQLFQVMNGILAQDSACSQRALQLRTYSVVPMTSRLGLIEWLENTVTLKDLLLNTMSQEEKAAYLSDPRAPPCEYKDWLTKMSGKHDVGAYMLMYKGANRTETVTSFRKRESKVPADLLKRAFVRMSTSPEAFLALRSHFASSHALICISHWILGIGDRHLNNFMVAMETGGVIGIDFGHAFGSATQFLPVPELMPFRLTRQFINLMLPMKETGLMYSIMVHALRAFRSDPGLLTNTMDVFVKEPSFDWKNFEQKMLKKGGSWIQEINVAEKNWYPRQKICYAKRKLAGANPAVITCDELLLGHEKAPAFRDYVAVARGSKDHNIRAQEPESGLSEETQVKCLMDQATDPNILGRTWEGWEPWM

[27] = in vivo; details: nude, mouse, plasma, po, 50 mg/kg
[28] = in vivo; details: nude, mouse, plasma, po, 50 mg/kg; remark: listed apart in the source
[29] = in vivo; details: nude, mouse, tumor, po, 50 mg/kg
[30] = in vivo; details: nude, mouse, tumor, po, 50 mg/kg; remark: listed apart in the source

Chain of Phosphatidylinositol 4,5-bisphosphate 3-kinase catalytic subunit alpha isoform (P42336 whole entry, canonical isoform): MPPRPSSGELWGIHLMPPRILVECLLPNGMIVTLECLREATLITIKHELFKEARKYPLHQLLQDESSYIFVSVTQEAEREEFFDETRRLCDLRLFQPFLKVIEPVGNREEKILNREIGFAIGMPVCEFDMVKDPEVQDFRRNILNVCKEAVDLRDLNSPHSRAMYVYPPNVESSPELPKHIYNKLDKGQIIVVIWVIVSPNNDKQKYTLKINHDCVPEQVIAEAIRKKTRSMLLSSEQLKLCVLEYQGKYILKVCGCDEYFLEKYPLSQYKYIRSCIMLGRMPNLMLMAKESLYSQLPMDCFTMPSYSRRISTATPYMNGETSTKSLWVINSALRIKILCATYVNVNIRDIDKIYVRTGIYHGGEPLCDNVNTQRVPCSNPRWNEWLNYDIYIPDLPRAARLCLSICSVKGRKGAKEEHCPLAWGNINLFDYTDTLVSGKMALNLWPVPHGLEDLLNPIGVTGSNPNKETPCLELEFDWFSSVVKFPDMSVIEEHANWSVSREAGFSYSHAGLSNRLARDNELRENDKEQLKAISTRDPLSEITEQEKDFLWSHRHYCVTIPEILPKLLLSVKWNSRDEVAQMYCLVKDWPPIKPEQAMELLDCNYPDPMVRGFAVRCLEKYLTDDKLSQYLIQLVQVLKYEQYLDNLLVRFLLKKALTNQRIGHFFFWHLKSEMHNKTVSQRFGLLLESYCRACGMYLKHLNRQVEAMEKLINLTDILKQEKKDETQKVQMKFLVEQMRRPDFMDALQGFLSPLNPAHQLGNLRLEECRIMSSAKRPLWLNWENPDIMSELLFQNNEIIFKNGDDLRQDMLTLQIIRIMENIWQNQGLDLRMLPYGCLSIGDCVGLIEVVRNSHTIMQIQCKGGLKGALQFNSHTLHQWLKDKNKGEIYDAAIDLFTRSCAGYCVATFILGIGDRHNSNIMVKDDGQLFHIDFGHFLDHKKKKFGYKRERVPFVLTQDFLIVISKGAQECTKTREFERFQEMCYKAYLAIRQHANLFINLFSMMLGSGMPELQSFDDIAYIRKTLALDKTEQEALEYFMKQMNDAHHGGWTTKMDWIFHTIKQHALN

COc1ccccc1N(C)C(=O)c1cc2c(s1)-c1ccccc1OC2
IC50 [1]: 673 nM

CN(C(=O)c1cc2c(s1)-c1ccccc1OC2)c1cccc(F)c1
IC50 [1]: 1000 nM

CN(C(=O)c1cc2c(s1)-c1ccccc1OC2)c1ccc(F)cc1
IC50 [1]: 1000 nM

CNC(=O)c1ccc(N(C)C(=O)c2cc3c(s2)-c2ccc(C(=O)NC)cc2OCC3)c(Cl)c1
Ki [1]: 2.5 nM
clearance [2]: 28 mL/min/kg
clearance [3]: 24 mL/min/kg

COC(=O)Nc1ccc2c(c1)OCCc1cc(C(=O)N(C)c3ccccc3Cl)sc1-2
Ki [1]: 1.5 nM
clearance [2]: 44 mL/min/kg

CN(C(=O)c1cc2c(s1)-c1ccccc1OCC2)c1ccccc1Cl
clearance [2]: 60 mL/min/kg

CN(C(=O)c1cc2c(s1)-c1ccc(C(N)=O)cc1OCC2)c1ccccc1Cl
Ki [1]: 1.2 nM
clearance [2]: 89 mL/min/kg

CNC(=O)c1ccc2c(c1)OCCc1cc(C(=O)N(C)c3ccccc3Cl)sc1-2
Stability [4]: 5 µM

Cc1ccccc1N(C)C(=O)c1cc2c(s1)-c1ccccc1OC2
IC50 [1]: 699 nM

CN(C(=O)c1cc2c(s1)-c1ccc(C(=O)N3CCOCC3)cc1OCC2)c1ccccc1Cl
Ki [1]: 31 nM

CNC(=O)c1ccc2c(c1)OCCc1cc(C(=O)N(C)c3ccc(F)cc3Cl)sc1-2
clearance [2]: 153 mL/min/kg
clearance [3]: 182 mL/min/kg

CN(C(=O)c1cc2c(s1)-c1ccccc1OCCC2)c1ccccc1Cl
IC50 [1]: > 10000 nM

CN(C(=O)c1cc2c(s1)-c1ccc(-c3cn[nH]c3)cc1OCC2)c1ccccc1Cl
Ki [1]: 0.6 nM

CN(C(=O)c1cc2c(s1)-c1ccc(-c3cn[nH]c3)cc1OCC2)c1ccncc1Cl
Ki [1]: 65 nM

CN(C(=O)c1cc2c(s1)-c1ccccc1OCC2)c1ccncc1Cl
Ki [1]: 473 nM
clearance [2]: 23 mL/min/kg

CNC(=O)c1ccc2c(c1)OCCc1cc(C(=O)N(C)c3cc(C(=O)N(C)C)ccc3Cl)sc1-2
clearance [2]: 66 mL/min/kg
clearance [3]: 55 mL/min/kg

CC(C)CN(C)C(=O)c1cc2c(s1)-c1ccccc1OC2
IC50 [1]: 17000 nM

CNC(=O)c1ccc2c(c1)OCCc1cc(C(=O)N(C)c3ccc(C(=O)N(C)C)cc3Cl)sc1-2
IC50 [5]: 530 nM
EC50 [6]: 550 nM
EC50 [7]: 256 nM
fraction unbound [8]: 0.03
fraction unbound [9]: 0.03
fraction unbound [10]: 0.02
fraction unbound [11]: 0.07
fraction unbound [12]: 0.09
clearance [13]: 36 mL/min/kg
bioavailability [14]: 50%
AUC [15]: 39 µM·h
clearance [16]: 15 mL/min/kg
bioavailability [17]: 28%
AUC [18]: 330 µM·h
clearance [19]: 10 mL/min/kg
inhibition [20]: Active
inhibition [21]: Active
inhibition [22]: Active
clearance [23]: 5 mL/min/kg
bioavailability [24]: 120%
AUC [25]: 17 µM·h
IC50 [26]: 6 nM
clearance [2]: 36 mL/min/kg
clearance [3]: 15 mL/min/kg
concentration at 1 h [27]: 7.38 µM
concentration at 6 h [28]: 11.1 µM
concentration at 1 h [29]: 1080 nM
concentration at 6 h [30]: 2240 nM

CN(C(=O)c1cc2c(s1)-c1ccccc1OC2)c1ccccn1
IC50 [1]: > 10000 nM

CC(C)N(C)C(=O)c1cc2c(s1)-c1ccccc1OC2
IC50 [1]: 5200 nM
